Read-outs that look alike come from different tables or passages of the source.
Tests used:
[1] = target: human IRAK4 FL (Full Length) (Homo sapiens (Human), UniProt Q9NWZ3); assay: IRAK4 Enzymatic DELFIA Assay, Protocol A; assay type: biochemical
[2] = test system: R848-induced TNFα production by human peripheral blood mononuclear cells (PBMCs); assay: R848 Induced TNFα in Human PBMC Assay; assay type: cell-based; conditions: Homo sapiens, PBMC, 3 h, read-out: R848-induced TNFa PBMC IC50 (nM)
Source text: R848 Induced TNFα in Human PBMC Assay.
This protocol is for R848-induced TNFα production by human peripheral blood mononuclear cells (PBMCs). […] The assay is used to assess cell-based potency of small molecule inhibitors of IRAK4 in the absence of serum.
The PBMCs in the interphase layer were collected and washed with PBS via centrifugation multiple times until the supernatant is clear. The purified PBMCs were re-suspended in RPMI (Roswell Park Memorial Institute) media (Sigma-Aldrich).
For the assay, a compound dilution plate containing a top concentration of 4 mM compound in DMSO was serially diluted 4-fold for 11 times. 250 nL of the compound dilution plate was spotted into a 384-well, flat bottom with lid, TC-treated, black with clear bottom, sterile, polystyrene plate (Corning Life Sciences).
10 μL of anti-TNFα antibody labeled with MSD SULFO-TAG at 50 μg/mL was added to each well and allowed to incubate overnight at 4° C.

[3] = human IRAK4 FL, 0.6 mM ATP (KM), read-out: IRAK4 DELFIA Protocol A IC50

Chain of human IRAK4 FL (Full Length) (Q9NWZ3 whole entry): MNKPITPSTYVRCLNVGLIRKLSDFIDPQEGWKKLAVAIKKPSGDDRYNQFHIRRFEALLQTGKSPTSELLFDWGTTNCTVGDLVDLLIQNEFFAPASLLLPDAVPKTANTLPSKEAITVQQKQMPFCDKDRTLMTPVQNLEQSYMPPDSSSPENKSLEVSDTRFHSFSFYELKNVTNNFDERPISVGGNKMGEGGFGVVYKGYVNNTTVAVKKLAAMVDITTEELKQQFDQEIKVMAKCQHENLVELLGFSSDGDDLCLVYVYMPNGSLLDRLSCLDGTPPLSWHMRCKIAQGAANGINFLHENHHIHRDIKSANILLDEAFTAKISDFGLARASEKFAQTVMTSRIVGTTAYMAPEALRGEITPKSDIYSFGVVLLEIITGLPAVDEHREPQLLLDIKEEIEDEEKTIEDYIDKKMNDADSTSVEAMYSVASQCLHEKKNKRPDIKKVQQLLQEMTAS

Row | Structure (SMILES) | IC50 [1, 3] | IC50 [2] | IC50 [1]
1 | COc1cc2c(OC[C@H]3NC(=O)[C@H]4[C@@H]3[C@@]4(C)F)nccc2cc1C(N)=O [Example 336, 1-{[(1S,2S,5R)-6-fluoro-6-methyl-4-oxo-3-azabicyclo[3.1.0]hex-2-yl]methoxy}-7-methoxyisoquinoline-6-carboxamide] | 0.3 nM | 674 nM | 
2 | CC[C@@H]1[C@H](F)C(=O)N[C@@H]1COc1nccc2cc(C(N)=O)c(OCCOC)cc12 [Example 339, 1-{[(2S,3S,4S)-3-ethyl-4-fluoro-5-oxopyrrolidin-2-yl]methoxy}-7-(2-methoxyethoxy)isoquinoline-6-carboxamide] | 90 nM | 269 nM | 
3 | COC[C@@H]1CC(=O)N[C@@H]1COc1nccc2cc(C(N)=O)c(OC)cc12 [Example 340, 7-methoxy-1-{[(2S,3R)-3-(methoxymethyl)-5-oxopyrrolidin-2-yl]methoxy}isoquinoline-6-carboxamide] | 12 nM | 456 nM | 
4 | CC[C@@H]1[C@H](F)C(=O)N[C@@H]1COc1ncnc2cc(C(N)=O)c(OC)cc12 [Example 341, 4-{[(2S,3S,4S)-3-ethyl-4-fluoro-5-oxopyrrolidin-2-yl]methoxy}-6-methoxyquinazoline-7-carboxamide] | 0.3 nM | 16 nM | 
5 | CC[C@@H]1[C@H](OC)C(=O)N[C@@H]1COc1nccc2cc(C(N)=O)c(OC)cc12 [Example 342, 1-{[(2S,3S,4S)-3-ethyl-4-methoxy-5-oxopyrrolidin-2-yl]methoxy}-7-methoxyisoquinoline-6-carboxamide] | 1000 nM | 2380 nM | 
6 | CC[C@H]1[C@@H](COc2nccc3cc(C(N)=O)c(OC)cc23)NC(=O)[C@@H]1OC [Example 343, 1-{[(2S,3S,4R)-3-ethyl-4-methoxy-5-oxopyrrolidin-2-yl]methoxy}-7-methoxyisoquinoline-6-carboxamide] | 41 nM | 408 nM | 
7 | CC[C@H]1[C@@H](COc2nccc3cc(C(N)=O)c(OC)cc23)NC(=O)C1(F)F [Example 345, 1-{[(2S,3S)-3-ethyl-4,4-difluoro-5-oxopyrrolidin-2-yl]methoxy}-7-methoxyisoquinoline-6-carboxamide] | 0.2 nM | 1.6 nM | 
8 | COC[C@H]1[C@@H](COc2nccc3cc(C(N)=O)c(OC)cc23)NC(=O)C1(F)F [Example 347, 1-{[(2S,3R)-4,4-difluoro-3-(methoxymethyl)-5-oxopyrrolidin-2-yl]methoxy}-7-methoxyisoquinoline-6-carboxamide] | 0.6 nM | 27 nM | 
9 | COC[C@@H]1[C@H](F)C(=O)N[C@@H]1COc1nccc2cc(C(N)=O)c(OC)cc12 [Example 348, 1-{[(2S,3R,4S)-4-fluoro-3-(methoxymethyl)-5-oxopyrrolidin-2-yl]methoxy}-7-methoxyisoquinoline-6-carboxamide] | 0.7 nM | 42 nM | 
10 | COc1cc2c(OC[C@H]3NC(=O)[C@@H](OC)[C@H]3C)nccc2cc1C(N)=O [Example 349, 7-methoxy-1-{[(2S,3S,4S)-4-methoxy-3-methyl-5-oxopyrrolidin-2-yl]methoxy}isoquinoline-6-carboxamide] | 2960 nM | 9460 nM | 
11 | COc1cc2c(OC[C@H]3NC(=O)[C@H](OC)[C@H]3C)nccc2cc1C(N)=O [Example 350, 7-methoxy-1-{[(2S,3S,4R)-4-methoxy-3-methyl-5-oxopyrrolidin-2-yl]methoxy}isoquinoline-6-carboxamide] | 58 nM | 568 nM | 
12 | COC[C@H]1[C@@H](COc2nccc3cc(C(N)=O)c(OC)cc23)NC(=O)[C@@H]1F [Example 351, 1-{[(2S,3R,4R)-4-fluoro-3-(methoxymethyl)-5-oxopyrrolidin-2-yl]methoxy}-7-methoxyisoquinoline-6-carboxamide] | 6.3 nM | 213 nM | 
13 | CC[C@@H]1[C@H](O)C(=O)N[C@@H]1COc1nccc2cc(C(N)=O)c(OC)cc12 [Example 352, 1-{[(2S,3S,4S)-3-ethyl-4-hydroxy-5-oxopyrrolidin-2-yl]methoxy}-7-methoxyisoquinoline-6-carboxamide] | 3.3 nM | 557 nM | 
14 | CC[C@H]1[C@@H](COc2nccc3cc(C(N)=O)c(OC)cc23)NC(=O)[C@@H]1O [Example 353, 1-{[(2S,3S,4R)-3-ethyl-4-hydroxy-5-oxopyrrolidin-2-yl]methoxy}-7-methoxyisoquinoline-6-carboxamide] | 0.5 nM | 20 nM | 
15 | COc1cc2c(OC[C@H]3NC(=O)C[C@H]3CCF)nccc2cc1C(N)=O [Example 355, 1-{[(2S,3S)-3-(2-fluoroethyl)-5-oxopyrrolidin-2-yl]methoxy}-7-methoxyisoquinoline-6-carboxamide] | 1.7 nM | 33 nM | 
16 | CC[C@@H]1[C@H](N)C(=O)N[C@@H]1COc1nccc2cc(C(N)=O)c(OC)cc12 [Example 356, 1-{[(2S,3R,4S)-4-amino-3-ethyl-5-oxopyrrolidin-2-yl]methoxy}-7-methoxyisoquinoline-6-carboxamide] | 115 nM | 594 nM | 

Row | Structure (SMILES) | IC50 [1, 3] | IC50 [2] | IC50 [1]
17 | CC[C@H]1[C@@H](COc2nccc3cc(C(N)=O)c(OC)cc23)NC(=O)[C@@H]1N [Example 357, 1-{[(2S,3R,4R)-4-amino-3-ethyl-5-oxopyrrolidin-2-yl]methoxy}-7-methoxyisoquinoline-6-carboxamide] | 30 nM | 588 nM | 
18 | CC[C@@H]1[C@H](F)C(=O)N[C@@H]1COc1nccc2cc(C(N)=O)c(OC(C)C)cc12 [Example 358, 1-{[(2S,3S,4S)-3-ethyl-4-fluoro-5-oxopyrrolidin-2-yl]methoxy}-7-(propan-2-yloxy)isoquinoline-6-carboxamide] | 0.4 nM | 1.3 nM | 
19 | CCOc1cc2c(OC[C@H]3NC(=O)[C@@H](F)[C@H]3CC)nccc2cc1C(N)=O [Example 359, 7-ethoxy-1-{[(2S,3S,4S)-3-ethyl-4-fluoro-5-oxopyrrolidin-2-yl]methoxy}isoquinoline-6-carboxamide] | 0.4 nM | 3.9 nM | 
20 | CC[C@@H]1[C@H](F)C(=O)N[C@@H]1COc1ncc(F)c2cc(C(N)=O)c(OC)cc12 [Example 360, 1-{[(2S,3S,4S)-3-ethyl-4-fluoro-5-oxopyrrolidin-2-yl]methoxy}-4-fluoro-7-methoxyisoquinoline-6-carboxamide] | 0.1 nM | 3.9 nM | 
21 | CC[C@@H]1[C@H](F)C(=O)N[C@@H]1COc1nccc2cc(C(N)=O)c(OC)c(F)c12 [Example 361, 1-{[(2S,3S,4S)-3-ethyl-4-fluoro-5-oxopyrrolidin-2-yl]methoxy}-8-fluoro-7-methoxyisoquinoline-6-carboxamide] | 4.8 nM | 27 nM | 
22 | CC[C@@H]1CC(=O)N[C@@H]1COc1ncc(F)c2cc(C(N)=O)c(OC)cc12 [Example 362, 1-{[(2S,3R)-3-ethyl-5-oxopyrrolidin-2-yl]methoxy}-4-fluoro-7-methoxyisoquinoline-6-carboxamide] | 1.1 nM | 28 nM | 
23 | CC[C@@H]1CC(=O)N[C@@H]1COc1nccc2cc(C(N)=O)c(OC)c(F)c12 [Example 363, 1-{[(2S,3R)-3-ethyl-5-oxopyrrolidin-2-yl]methoxy}-8-fluoro-7-methoxyisoquinoline-6-carboxamide] | 11 nM | 110 nM | 
24 | COc1cc2c(OC[C@H]3NC(=O)[C@@H]4[C@@H](C)[C@@H]43)ncc(F)c2cc1C(N)=O [Example 364, 4-fluoro-7-methoxy-1-{[(1S,2S,5R)-6-methyl-4-oxo-3-azabicyclo[3.1.0]hex-2-yl]methoxy}isoquinoline-6-carboxamide] | 16 nM | 145 nM | 
25 | COc1c(C(N)=O)cc2ccnc(OC[C@H]3NC(=O)[C@@H]4[C@@H](C)[C@@H]43)c2c1F [Example 365, 8-fluoro-7-methoxy-1-{[(1S,2S,5R)-6-methyl-4-oxo-3-azabicyclo[3.1.0]hex-2-yl]methoxy}isoquinoline-6-carboxamide] | 187 nM | 724 nM | 
26 | COc1cc2c(OC[C@H]3NC(=O)C[C@H]3CF)nccc2cc1C(N)=O [Example 366, 1-{[(2S,3R)-3-(fluoromethyl)-5-oxopyrrolidin-2-yl]methoxy}-7-methoxyisoquinoline-6-carboxamide] |  | 91 nM | 6.1 nM
27 | COc1cc2c(OC[C@H]3NC(=O)[C@@H](F)[C@H]3CF)nccc2cc1C(N)=O [Example 367, 1-{[(2S,3R,4S)-4-fluoro-3-(fluoromethyl)-5-oxopyrrolidin-2-yl]methoxy}-7-methoxyisoquinoline-6-carboxamide] | 0.4 nM | 14 nM | 
28 | COc1cc2c(OC[C@H]3NC(=O)[C@@H](F)[C@H]3C3CC3)nccc2cc1C(N)=O [Example 368, 1-{[(2S,3S,4S)-3-cyclopropyl-4-fluoro-5-oxopyrrolidin-2-yl]methoxy}-7-methoxyisoquinoline-6-carboxamide] | 0.3 nM | 10 nM | 
29 | COc1cc2c(OC[C@H]3NC(=O)[C@H](F)[C@H]3C3CC3)nccc2cc1C(N)=O [Example 369, 1-{[(2S,3S,4R)-3-cyclopropyl-4-fluoro-5-oxopyrrolidin-2-yl]methoxy}-7-methoxyisoquinoline-6-carboxamide] | 3.7 nM | 45 nM | 
30 | COc1cc2c(OC[C@H]3NC(=O)[C@@H](F)[C@H]3CCF)nccc2cc1C(N)=O [Example 370, 1-{[(2S,3S,4S)-4-fluoro-3-(2-fluoroethyl)-5-oxopyrrolidin-2-yl]methoxy}-7-methoxyisoquinoline-6-carboxamide] | 0.1 nM | 3.7 nM | 
31 | CC(C)Oc1cc2c(OC[C@@H]3CCC(=O)N3)ncc(-c3cn(C)cn3)c2cc1C(N)=O [Example 371, 4-(1-methyl-1H-imidazol-4-yl)-1-{[(2S)-5-oxopyrrolidin-2-yl]methoxy}-7-(propan-2-yloxy)isoquinoline-6-carboxamide] | 7 nM | 604 nM | 
